Test system: HCV 1b genotype
Experiment: microbe, parasite or virus in culture
Type: cell-based, Hepatitis C virus
Conditions: HCV 1b replicon; read-out: Range: EC50 ranges against HCV 1b
Experimental: An HCV Replicon assay was utilized in the present disclosure, and was prepared, conducted and validated as described in commonly owned PCT/US2006/022197 and in O'Boyle et. al. Antimicrob Agents Chemother. 2005 April; 49(4):1346-53. Assay methods incorporating luciferase reporters have also been used as described (Apath.com).
HCV-neo replicon cells and replicon cells containing resistance substitutions in the NS5A region were used to test the currently described family of compounds.

SMILES	EC50 [nM]
COC(=O)NC(C(=O)N1[C@@H]2C[C@@H]2C[C@H]1c1nc(-c2ccc(-c3ccc(-c4c[nH]c([C@@H]5C[C@H]6C[C@H]6N5C(=O)C(NC(=O)OC)C5C[C@@H]6[C@H](C5)C6(F)F)n4)cc3)cc2)c[nH]1)C1C[C@@H]2[C@H](C1)C2(F)F (single isomer, unassigned; diastereomer 2) [QC2.2]	0.00501 to 0.1
COC(=O)NC(C(=O)N1[C@@H]2C[C@@H]2C[C@H]1c1nc(-c2ccc(-c3ccc(-c4c[nH]c([C@@H]5C[C@H]6C[C@H]6N5C(=O)C(NC(=O)OC)C5[C@H]6COC[C@@H]56)n4)cc3)cc2)c[nH]1)C1[C@H]2COC[C@@H]12 (single isomer, unassigned; diastereomer 1) [QC4.1]	0.00501 to 0.1
COC(=O)NC(C(=O)N1CC(C)CC1c1ncc(-c2ccc(C3CC3c3ccc(-c4cnc(C5CC(C)CN5C(=O)C(NC(=O)OC)C5CCOC6(CC6)C5)[nH]4)cc3)cc2)[nH]1)C1CCOC2(CC2)C1 [Example OL1, dimethyl (((3S,3′S,5S,5′S)-5,5′-(5,5′-((1S,2S)-cyclopropane-1,2-diylbis(4,1-phenylene))bis(1H-imidazole-5,2-diyl))bis(3-methylpyrrolidine-5,1-diyl))bis(2-oxo-1-(4-oxaspiro[2.5]octan-7-yl)ethane-2,1-diyl))dicarbamate]	0.00501 to 0.1
COC(=O)NC(C(=O)N1C(c2ncc(-c3ccc(C#Cc4ccc(-c5cnc(C6CC7CC7N6C(=O)C(NC(=O)OC)C6CCOC7(CC7)C6)[nH]5)cc4)cc3)[nH]2)CC2CC21)C1CCOC2(CC2)C1 [OL4, dimethyl (((1R,1′R,3S,3′S,5R,5′R)-3,3′-(5,5′-(ethyne-1,2-diylbis(4,1-phenylene))bis(1H-imidazole-5,2-diyl))bis(2-azabicyclo[3.1.0]hexane-3,2-diyl))bis(2-oxo-1-(4-oxaspiro[2.5]octan-7-yl)ethane-2,1-diyl))dicarbamate]	0.00501 to 0.1
COC(=O)NC(C(=O)N1[C@@H](C)CC[C@H]1c1ncc(-c2ccc(-c3ccc(-c4cnc([C@@H]5CC[C@H](C)N5C(=O)C(NC(=O)OC)C5CCOC6(CCC6)C5)[nH]4)cc3)cc2)[nH]1)C1CCOC2(CCC2)C1 (single isomer, unassigned) [Example 2.2]	0.9 to 700
COC(=O)NC(C(=O)N1CCCC1c1nc2cc(C#Cc3ccc4[nH]c(C5CCCN5C(=O)C(NC(=O)OC)C5CCOC6(CC6)C5)nc4c3)ccc2[nH]1)C1CCOC2(CC2)C1 [OL9, dimethyl (((2S,2′S)-2,2′-(5,5′-(ethyne-1,2-diyl)bis(1H-benzo[d]imidazole-5,2-diyl))bis(pyrrolidine-2,1-diyl))bis(2-oxo-1-(4-oxaspiro[2.5]octan-7-ypethane-2,1-diyl))dicarbamate]	0.1 to 0.9
COC(=O)NC(C(=O)N1[C@@H](C)CC[C@H]1c1ncc(-c2ccc(-c3ccc(-c4cnc([C@@H]5CC[C@H](C)N5C(=O)C(NC(=O)OC)C5CCOC6(CCCC6)C5)[nH]4)cc3)cc2)[nH]1)C1CCOC2(CCCC2)C1 (single isomer, unassigned) [Example 3.2]	0.9 to 700
COC(=O)NC(C(=O)N1[C@@H]2C[C@@H]2C[C@H]1c1nc(-c2ccc(-c3ccc(-c4c[nH]c([C@@H]5C[C@H]6C[C@H]6N5C(=O)C(NC(=O)OC)C5[C@H]6COC[C@@H]56)n4)cc3)cc2)c[nH]1)C1[C@H]2COC[C@@H]12 (single isomer, unassigned; diastereomer 2) [QC4.2]	0.1 to 0.9
COC(=O)NC(C(=O)N1[C@@H](C)CC[C@H]1c1ncc(-c2ccc(-c3ccc(-c4cnc([C@@H]5CC[C@H](C)N5C(=O)C(NC(=O)OC)C5CCOC6(CCC6)C5)[nH]4)cc3)cc2)[nH]1)C1CCOC2(CCC2)C1 (single isomer, unassigned) [Example 2.1]	0.9 to 700

Same assay, conditions: Hepatitis C virus, HCV 1b replicon; read-out: 1b (μM): EC50 (Effective 50% inhibitory concentration) against the HCV 1b genotype

SMILES	EC50 [nM]
C=C1CC(C(NC(=O)OC)C(=O)N2[C@@H](C)CC[C@H]2c2ncc(-c3ccc(-c4ccc(-c5cnc([C@@H]6CC[C@H](C)N6C(=O)C(NC(=O)OC)C6CC(=C)C6)[nH]5)cc4)cc3)[nH]2)C1 (stereo partly shown) [Example 4.2]	0.243
COC(=O)NC(C(=O)N1[C@@H](C)CC[C@H]1c1ncc(-c2ccc(-c3ccc(-c4cnc([C@@H]5CC[C@H](C)N5C(=O)C(NC(=O)OC)C5CCOC6(CCC6)C5)[nH]4)cc3)cc2)[nH]1)C1CCOC2(CCC2)C1 (single isomer, unassigned) [Example 2.3]	0.00488
COC(=O)NC(C(=O)N1CCC[C@H]1c1nc2cc(-c3ccc4c(ccc5nc([C@@H]6CCCN6C(=O)C(NC(=O)OC)C6CCOC7(CC7)C6)[nH]c54)c3)ccc2[nH]1)C1CCOC2(CC2)C1 (stereo partly drawn) [QC10, methyl (2-((2S)-2-(7-(2-((2S)-1-(((methoxycarbonyl)amino)(4-oxaspiro[2.5]oct-7-yl)acetyl)-2-pyrrolidinyl)-1H-benzimidazol-5-yl)-1H-naphtho[1,2-d]imidazol-2-yl)-1-pyrrolidinyl)-1-(4-oxaspiro[2.5]oct-7-yl)-2-oxoethyl)carbamate]	0.259

Same assay, conditions: Hepatitis C virus, HCV 1b replicon; read-out: Range: EC50 ranges against HCV 1b

SMILES	EC50 [nM]
COC(=O)N[C@H](C(=O)N1[C@@H](C)CC[C@H]1c1ncc(-c2ccc(-c3ccc(-c4cnc([C@@H]5CC[C@H](C)N5C(=O)[C@@H](NC(=O)OC)[C@@H]5CCO[C@@H](C6CC6)C5)[nH]4)cc3)cc2)[nH]1)[C@@H]1CCO[C@@H](C2CC2)C1 [Example 6]	0.00501 to 0.1
COC(=O)NC(C(=O)N1[C@@H](C)CC[C@H]1c1nc(-c2ccc(-c3ccc(-c4c[nH]c([C@@H]5CC[C@H](C)N5C(=O)C(NC(=O)OC)=C5CC(C)(C#N)C5)n4)cc3)cc2)c[nH]1)=C1CC(C)(C#N)C1 (stereo partly drawn) [Example 12.1, dimethyl (4,4′-biphenyldiylbis(1H-imidazole-4,2-diyl((2S,5S)-5-methyl-2,1-pyrrolidinediyl)(1-(3-cyano-3-methylcyclobutylidene)-2-oxo-2,1-ethanediyl)))biscarbamate]	0.9 to 700
C=C1CC(C(NC(=O)OC)C(=O)N2[C@@H](C)CC[C@H]2c2ncc(-c3ccc(-c4ccc(-c5cnc([C@@H]6CC[C@H](C)N6C(=O)C(NC(=O)OC)C6CC(=C)C6)[nH]5)cc4)cc3)[nH]2)C1 (stereo partly shown) [Example 4.2]	0.1 to 0.9
COC(=O)N[C@H](C(=O)N1C(CO)CCC1c1ncc(-c2ccc(-c3ccc(-c4cnc(C5CCC(CO)N5C(=O)[C@@H](NC(=O)OC)C5C[C@@H](C)O[C@H](C)C5)[nH]4)cc3)cc2)[nH]1)C1C[C@@H](C)O[C@H](C)C1 (single isomer, unassigned) [Example 11.1]	0.9 to 700
COC(=O)NC(C(=O)N1[C@@H]2C[C@@H]2C[C@H]1c1nc(-c2ccc(-c3ccc4c(c3)CCc3[nH]c([C@@H]5C[C@H]6C[C@H]6N5C(=O)C(NC(=O)OC)C5CCOC6(CC6)C5)nc3-4)cc2)c[nH]1)C1CCOC2(CC2)C1 (stereo partly drawn) [QC11, methyl (2-((1R,3S,5R)-3-(4-(4-(2-((1R,3S,5R)-2-(((methoxycarbonyl)amino)(4-oxaspiro[2.5]oct-7-yl)acetyl)-2-azabicyclo[3.1.0]hex-3-yl)-4,5-dihydro-3H-naphtho[1,2-d]imidazol-7-yl)phenyl)-1H-imidazol-2-yl)-2-azabicyclo[3.1.0]hex-2-yl)-1-(4-oxaspiro[2.5]oct-7-yl)-2-oxoethyl)carbamate]	0.00501 to 0.1
COC(=O)NC(C(=O)N1CCC[C@H]1c1nc2cc(-c3ccc4c(ccc5nc([C@@H]6CCCN6C(=O)C(NC(=O)OC)C6CCOC7(CC7)C6)[nH]c54)c3)ccc2[nH]1)C1CCOC2(CC2)C1 (stereo partly drawn) [QC10, methyl (2-((2S)-2-(7-(2-((2S)-1-(((methoxycarbonyl)amino)(4-oxaspiro[2.5]oct-7-yl)acetyl)-2-pyrrolidinyl)-1H-benzimidazol-5-yl)-1H-naphtho[1,2-d]imidazol-2-yl)-1-pyrrolidinyl)-1-(4-oxaspiro[2.5]oct-7-yl)-2-oxoethyl)carbamate]	0.1 to 0.9

Same assay, conditions: read-out: Range: EC50 ranges against HCV 1b

SMILES	EC50 [nM]
COC(=O)NC(C(=O)N1CCOCC1c1ncc(-c2ccc(-c3ccc(-c4cnc(C5COCCN5C(=O)C(NC(=O)OC)C5CCOC6(CC6)C5)[nH]4)cc3)cc2)[nH]1)C1CCOC2(CC2)C1 [OL8, dimethyl (((3R,3′R)-3,3′-(5,5'-([1,1′-biphenyl]-4,4′-diyl)bis(1H-imidazole-5,2-diyl))bis(morpholine-4,3-diyl))bis(2-oxo-1-(4-oxaspiro[2.5]octan-7-yl)ethane-2,1 diyl))dicarbamate]	0.1 to 0.9

Reference: patent US9561212B2, “Hepatitis C virus inhibitors” (BRISTOL-MYERS SQUIBB COMPANY, priority 2012, dated 2017)
